These results are taken from patent US12357552B2, “Hydroxyquinoline compounds and methods of use as pigment modifying agents” (priority 2021, dated 2025).

Data set [1] deals with MNT-1 cells. The data set is described as follows: inhibition of melanin production in human melanoma MNT-1 cells. The class given is cell-based. Conditions: 3 days. As to the method: To assess melanogenesis inhibition within cells, the human melanoma MNT-1 cell line (CRL-3450 from ATCC), cultured and divided according to the recommended protocol, was subjected to varying concentrations of chloroxine (2) and the other hydroxyquinoline drugs. The MNT-1 cell line was chosen because it was previously used successfully for quantifying melanin synthesis (Hah et al., 2012). Frozen stocks (3.8×10^6 cells) of cells were thawed in a 37° C. water bath, then plated into three 10-cm plates containing 10 mL of MDEM+10% fetal bovine serum and 100 μL of 100× Penicillin/Streptomycin. When the cells became confluent, medium was aspirated, cells were rinsed with sterile phosphate-buffered saline (PBS), and then treated with 1 mL of 0.25% trypsin with 0.02% EDTA at 37° C. for 3 min. When the cells became loose, 4 mL of medium was added to neutralize the trypsin. FIG. 5 depicts the inhibition of melanin production in MNT-1 cells by chloroxine, an inhibitor of tyrosinase, at concentrations indicated. Cells were incubated with chloroxine for 3 days and then harvested, with melanin quantified after cell lysis, measuring absorbance at 405 nm. […]
Where Acmpd is the absorbance value for the test compound, and Ap and An are the absorbance values of the positive and negative controls, respectively. […]

Data set [2] concerns MNT-1 cells. Briefly: viability assay in MNT-1 cell line. The class given is cell-based, human. An excerpt:
Where Acmpd is the absorbance value for the test compound, and Ap and An are the absorbance values of the positive and negative controls, respectively. FIG. 6 depicts the reduction in melanin biosynthesis in MNT-1 cells by chloroxine, relative to the positive control phenylthiourea (PTU), a tyrosinase inhibitor commonly used as a melanin synthesis blocker. Other hydroxyquinoline drugs caused different effects in the MNT-1 cell line. At higher concentrations, the iodo-substituted compounds clioquinol (3) and iodoquinol (4) were toxic, with decreased cell counts in the viability assay.

A short description of data set [3]: solubility in aqueous solution under the tyrosinase assay conditions. Conditions: higher concentrations.
In data set [4] the target is mushroom tyrosinase (Agaricus bisporus, UniProt C7FF04). Briefly: fluorescence-based tyrosinase assay with substrate PAP-AMC (monophenolase activity).
Procedure: Enzyme activity was measured using the fluorescent substrate PAP-AMC. […] Fluorescence spectroscopy was carried out on a Carey Eclipse spectrophotometer. Fluorescence intensity was measured at 6-second intervals in quartz cuvettes kept at 37° C. […] In vitro fluorescence assays using mushroom tyrosinase (Worthington Biochemicals) were performed in 50 mM sodium phosphate buffer, pH 7.4 with the fluorescent tyrosinase substrate, PAP-AMC (Biovision). Varying concentrations of inhibitors were used as indicated. Data represent the mean±SD of three independent experiments.
After 5 minute incubation, inhibitor was added as a solution in DMSO. After an additional 2 minute incubation, a DMSO solution of PAP-AMC (0.02 mL of 1 mM solution) was added and, after thoroughly mixing, the reaction was monitored by fluorescence (λ excitation=350 nm; λ emission=440 nm). Initial rates were calculated using the slope of the curve for the first ca. 10% of the reaction. The first 1 min of the reaction were not used owing to the usual induction period observed with tyrosinase. Inhibition assays were performed in triplicate trials. Non-linear regression and curve fitting were done using Prism software (Graphpad Inc). […] The experiment was performed in triplicate at pH 7.4 and data were plotted according to Lineweaver-Burk. Data represent the mean±SD of three independent experiments.
A further data set deals with tyrosinase. Conditions: cited from earlier work.
Data set [5] relates to mushroom tyrosinase. Briefly: assessment of reversibility: residual tyrosinase activity after ultrafiltration, with or without exogenous copper sulfate. The class given is biochemical. Conditions: 5 μM inhibitor. Here is the method: To gain further insight into the mode of action of the hydroxyquinoline drugs, residual enzyme activity was assessed after separation of the drug from the enzyme. This is generally done to assess whether the inhibitor acts in a reversible or irreversible manner. After incubation and measurement of tyrosinase activity, the drug nitroxoline (1) was separated from the reaction mixture in a Centricon centrifugal filter device, and enzymatic activity remeasured with fresh PAPAMC substrate.
When residual activity was measured after ultracentrifugation, less than 10% of the original activity remained (FIG. 4(b)). […]
To assess reversibility of enzyme inhibition, a reaction mixture containing 5 μM inhibitor was placed into Amicon Ultra centrifugal filters (10 K MWCO), concentrated at 4000 rpm for 10 minutes, followed by dilution with sodium phosphate buffer for a total of three cycles. If reconstitution of enzyme activity was being evaluated, exogenous copper sulfate was added to the remaining solution to a final concentration of 0.1 mM. Then fresh L-DOPA and PAP-AMC substrate was added and fluorescence change measured as previously described. […]

One may read the pIC50 as the negative decadic logarithm of the IC50, by convention in mol/L. A word on the pKi: it is −log10 of the Ki, conventionally taken in molar units.

pIC50, pKi: −log10 of the molar value. Like-named read-outs stand apart in the source and are kept apart here.

Sequence of mushroom tyrosinase (Agaricus bisporus, UniProt C7FF04) (C7FF04 1-392): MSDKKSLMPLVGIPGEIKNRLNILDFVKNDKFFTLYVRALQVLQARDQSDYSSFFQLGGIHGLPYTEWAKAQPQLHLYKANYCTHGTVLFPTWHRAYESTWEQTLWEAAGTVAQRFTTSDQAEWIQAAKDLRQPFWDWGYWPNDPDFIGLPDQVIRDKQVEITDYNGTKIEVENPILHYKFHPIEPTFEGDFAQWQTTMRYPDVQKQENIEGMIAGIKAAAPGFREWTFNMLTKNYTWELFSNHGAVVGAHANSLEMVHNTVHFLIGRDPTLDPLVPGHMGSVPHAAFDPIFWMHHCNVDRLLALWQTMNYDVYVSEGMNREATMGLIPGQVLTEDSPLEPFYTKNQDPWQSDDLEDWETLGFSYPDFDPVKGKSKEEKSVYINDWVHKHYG

For `Oc1c(Cl)cc(Cl)c2cccnc12` [chloroxine], the “ability to block melanin production” value in the data set on MNT-1 cells [1] is on record as “dose-dependent”. Besides, the pIC50 with MNT-1 cells [1] (Homo sapiens, 72 h, absorbance at 405 nm, read-out: IC50 value for blocking melanin synthesis) is around 5.82. Moreover, the “toxicity (cell counts in the viability assay)” value (“toxicity” for short) with MNT-1 cells [2] is “not toxic”. In addition, the “solubility in aqueous solution” value in data set [3] is “did not show evidence of insolubility”. Further, the pKi at mushroom tyrosinase [4] was around 4.92.
With `Oc1c(I)cc(Cl)c2cccnc12` [clioquinol], the “toxicity” value in the data set on MNT-1 cells [2] is recorded as “toxic”. The same compound had a pKi on mushroom tyrosinase [4] of 3.44.
Turning to `O=c1cc(CO)occ1O` [kojic acid], the inhibition of tyrosinase entry in the data set on tyrosinase is recorded as “high micromolar”.
Turning to `O=[N+]([O-])c1ccc(O)c2ncccc12` [nitroxoline], the “toxicity” value with MNT-1 cells [2] is listed as “not toxic”. Moreover, in the data set with mushroom tyrosinase [5] (after ultrafiltration, 0.1 mM copper sulfate), the “enzyme activity after incubation of the concentrate with exogenous copper sulfate” value is “substantial recovery of original enzyme activity”. Besides, the “residual activity after ultracentrifugation, of the original activity” value in the data set with mushroom tyrosinase [5] (no exogenous copper sulfate) was “less than 10%”. The compound also showed a pKi on mushroom tyrosinase [4] of 6.05. In addition, at mushroom tyrosinase [4] (varying substrate and inhibitor concentrations, pH 7.4), the “type of enzyme inhibition (Lineweaver-Burk)” value is listed as “competitive inhibitor”.
Regarding iodoquinol, in the data set on MNT-1 cells [2] (MNT-1 cells, higher concentrations), the “toxicity” value is listed as “toxic”. The “solubility in aqueous solution” value in data set [3] is given as “less soluble in aqueous solution”. Further, at mushroom tyrosinase [4] (monophenolase activity of tyrosinase), the “inhibitory constant (in words)” value is “high micromolar”. On mushroom tyrosinase [4] (mushroom tyrosinase, PAP-AMC substrate, pH 7.4), the pKi was 2.89.
